Marks after values point to notes of the source that are not given here.
Test system: not listed separately
Test: Fraction of total tissue amount present in the bilayer, calculated from Pb/w
Conditions: bilayer volume 2.5% of tissue volume, no protein binding

SMILES	fraction of the total amount in the tissue present in the bilayer
BrCCc1ccccc1 [compound 7, 1-bromo-2-phenylethane]	93%
CCCCCCO [compound 11, 1-hexanol]	68%
Cc1cc(O)ccc1Cl [compound 74, 4-chloro-3-methylphenol]	97%
OCc1c2ccccc2cc2ccccc12 [compound 82, 9-anthracenemethanol]	99%
c1ccc2[nH]ccc2c1 [compound 111, indole]	81%

Test system: not given
Test: not given
Conditions: marked values, listed in Table 1; cited from earlier work

SMILES	log P C16/DAcPC
Cc1ccc(C)cc1 [compound 6, 1,4-dimethylbenzene]	2.59 ^b
OCc1c2ccccc2cc2ccccc12 [compound 82, 9-anthracenemethanol]	–0.42 ^b
CC(C)(c1ccc(O)cc1)c1ccc(O)cc1 [compound 91, bisphenol A]	–2.70 ^b
CCCc1ccccc1 [compound 101, n-propylbenzene]	2.98 ^b

Test system: not given
Test: not given
Conditions: DMPC bilayer; listed in Table 1; cited from earlier work

SMILES	log P bilayer/water exptl
Cc1ccc(C)cc1 [compound 6, 1,4-dimethylbenzene]	2.98
OCc1c2ccccc2cc2ccccc12 [compound 82, 9-anthracenemethanol]	3.50
OCc1ccccc1 [compound 89, benzylalcohol]	2.03
CC(C)(c1ccc(O)cc1)c1ccc(O)cc1 [compound 91, bisphenol A]	2.95
CCCc1ccccc1 [compound 101, n-propylbenzene]	3.29

Test system: rhodopsin
Test: not given
Conditions: 1-palmitoyl-2-oleoyl-PC vesicles ref 132; cited from earlier work

SMILES	effect on photolysis of rhodopsin
CCCCCCO [compound 11, 1-hexanol]	negligible
CCO [compound 94, ethanol]	promoting effect
CCCCO [compound 113, 1-butanol]	promoting effect
CCCCCO [compound 114, 1-pentanol]	promoting effect
CCCCCCCO [compound 115]	inhibitory effect
CCCCCCCCO [compound 116]	inhibitory effect

Test system: not given
Test: not given
Conditions: experimental values from the ClogP database ref 119; cited from earlier work

SMILES	logP O/W
Clc1ccccc1Cl [compound 1, 1,2-dichlorobenzene]	3.43
Clc1cc(Cl)cc(Cl)c1 [compound 2, 1,3,5-trichlorobenzene]	4.19
Clc1cccc(Cl)c1 [compound 3, 1,3-dichlorobenzene]	3.53
Cc1cccc(C)c1[N+](=O)[O-] [compound 4, 1,3-dimethyl-2-nitrobenzene]	2.95
BrCCc1ccccc1 [compound 7, 1-bromo-2-phenylethane]	3.09
BrCCCc1ccccc1 [compound 8, 1-bromo-3-phenylpropane]	3.72
Clc1ccc(Br)cc1 [compound 9, 1-bromo-4-chlorobenzene]	3.54
Brc1cccc2ccccc12 [compound 10, 1-bromonaphthalene]	4.06
Clc1ccc(-c2ccc(Cl)c(Cl)c2Cl)c(Cl)c1Cl [compound 14, 2,2′,3,3′,4,4′-hexachlorobiphenyl]	7.32
Clc1cccc(-c2ccc(Cl)c(Cl)c2Cl)c1Cl [compound 16, 2,2′,3,3′,4-pentachlorobiphenyl]	6.30
Clc1ccc(Cl)c(-c2c(Cl)ccc(Cl)c2Cl)c1Cl [compound 17, 2,2′,3,3′,6,6′-hexachlorobiphenyl]	7.12
Clc1cccc(-c2cccc(Cl)c2Cl)c1Cl [compound 18, 2,2′,3,3′-tetrachlorobiphenyl]	6.18
Clc1ccc(Cl)c(-c2cccc(Cl)c2Cl)c1 [compound 21, 2,2′,3,5′-tetrachlorobiphenyl]	5.81
Clc1ccccc1-c1cccc(Cl)c1Cl [compound 23, 2,2′,3-trichlorobiphenyl]	5.60
Clc1cc(Cl)c(-c2c(Cl)cc(Cl)cc2Cl)c(Cl)c1 [compound 24, 2,2′,4,4′,6,6′-hexachlorobiphenyl]	7.29
Clc1ccc(Cl)c(-c2cc(Cl)c(Cl)cc2Cl)c1 [compound 25, 2,2′,4,5,5′-pentachlorobiphenyl]	6.85
Clc1cc(Cl)c(-c2ccccc2Cl)cc1Cl [compound 26, 2,2′,4,5-tetrachlorobiphenyl]	6.27
Clc1ccc(-c2cc(Cl)ccc2Cl)c(Cl)c1 [compound 27, 2,2′,4,5′-tetrachlorobiphenyl]	6.36
Clc1ccc(-c2ccccc2Cl)c(Cl)c1 [compound 28, 2,2′,4-trichlorobiphenyl]	5.76
Clc1ccc(Cl)c(-c2cc(Cl)ccc2Cl)c1 [compound 29, 2,2′,5,5′-tetrachlorobiphenyl]	6.26
Clc1ccccc1-c1c(Cl)cccc1Cl [compound 31, 2,2′,6-trichlorobiphenyl]	5.47
Clc1ccccc1-c1ccccc1Cl [compound 33, 2,2′-dichlorobiphenyl]	4.97
Clc1c(Cl)c(Cl)c(-c2ccccc2)c(Cl)c1Cl [compound 35, 2,3,4,5,6-pentachlorobiphenyl]	6.74
Clc1cc(-c2ccccc2)c(Cl)c(Cl)c1Cl [compound 36, 2,3,4,5-tetrachlorobiphenyl]	6.41
Clc1cccc(-c2cc(Cl)ccc2Cl)c1 [compound 39, 2,3′,5-trichlorobiphenyl]	5.76
Clc1ccc(Cl)c(-c2ccccc2)c1Cl [compound 40, 2,3,6-trichlorobiphenyl]	5.67
Clc1cccc(-c2c(Cl)cccc2Cl)c1 [compound 41, 2,3′,6-trichlorobiphenyl]	5.67

SMILES	logP O/W
Nc1cc2ccccc2cc1N [compound 42, 2,3-diaminonaphthalene]	1.54
Clc1cccc(-c2ccccc2)c1Cl [compound 43, 2,3-dichlorobiphenyl]	4.99
Clc1cccc(-c2ccccc2Cl)c1 [compound 44, 2,3′-dichlorobiphenyl]	5.02
Nc1cc(Cl)c(Cl)cc1Cl [compound 45, 2,4,5-trichloroaniline]	3.69
Clc1cc(Cl)c(-c2ccccc2)cc1Cl [compound 46, 2,4,5-trichlorobiphenyl]	5.90
Clc1cc(Cl)c(-c2ccccc2)c(Cl)c1 [compound 47, 2,4,6-trichlorobiphenyl]	5.71
Clc1ccc(-c2c(Cl)cccc2Cl)cc1 [compound 48, 2,4′,6-trichlorobiphenyl]	5.75
Clc1ccc(-c2ccccc2)c(Cl)c1 [compound 49, 2,4-dichlorobiphenyl]	5.30
Clc1ccc(-c2ccccc2Cl)cc1 [compound 50, 2,4′-dichlorobiphenyl]	5.10
Clc1ccc(Cl)c(-c2ccccc2)c1 [compound 51, 2,5-dichlorobiphenyl]	5.16
Cc1ccc(C)c(O)c1 [compound 52, 2,5-dimethylphenol]	2.33
Clc1cccc(Cl)c1-c1ccccc1 [compound 53, 2,6-dichlorobiphenyl]	4.98
COc1cccc(OC)c1O [compound 54, 2,6-dimethoxyphenol]	1.15
Cc1ccccc1Br [compound 57, 2-bromotoluene]	3.50
Clc1ccccc1-c1ccccc1 [compound 58, 2-chlorobiphenyl]	4.53
Cc1ccc2cc3ccccc3cc2c1 [compound 60, 2-methylanthracene]	5.00
Nc1cccc(Br)c1 [compound 63, 3-bromoaniline]	2.10
CC(=O)c1ccc(N)cc1 [compound 68, 4-aminoacetophenone]	0.86
Nc1ccc(Br)cc1 [compound 71, 4-bromoaniline]	2.11
Cc1cc(O)ccc1Cl [compound 74, 4-chloro-3-methylphenol]	3.10
O=C(c1ccccc1)c1ccc(Cl)cc1 [compound 75, 4-chlorobenzophenone]	3.79
CN(C)c1ccc(C=O)cc1 [compound 77, 4-dimethylamino-benzaldehyde]	2.01
Cc1ccc([N+](=O)[O-])cc1 [compound 79, 4-nitrotoluene]	2.37
CCCCCc1ccc(O)cc1 [compound 80, 4-n-pentylphenol]	4.24
Clc1ccccc1 [compound 92, chlorobenzene]	2.89
CCOC(=O)c1cccnc1 [compound 95, ethylnicotinate]	1.32
c1ccc2c(c1)ccc1ccccc12 [compound 104, phenanthrene]	4.46

Reference: article PMC4186683 (Molecular Pharmaceutics, 2014)
